Test results as given in ChEMBL document CHEMBL3792286, “A convenient and efficient approach to polyfluorosalicylic acids and their tuberculostatic activity” (Bioorg Med Chem Lett, 2016).
In brackets after ≈: the same amount, converted by molar mass.

Experiments:
[1] = Toxicity in healthy mouse administered as single peroral dose measured after 14 days; type: organism-based; conditions: in vivo, po
[2] = test system: Mycobacterium tuberculosis; experiment: microbe, parasite or virus in culture; conditions: H37Rv, 240 h
Description: Tuberculostatic activity against Mycobacterium tuberculosis H37Rv assessed as induction of penetration size stunting incubated for 10 days by vertical diffusion method

[3] = test system: Mycobacterium avium; type: functional; conditions: 240 h
[4] = test system: Mycobacterium tuberculosis; experiment: Antimicrobial activity against Mycobacterium tuberculosis; type: functional
[5] = test system: Mycolicibacter terrae; type: functional; conditions: 240 h

| Structure (SMILES) | LD50 at 336 h [1] [mg/kg] | MIC [2] [µg/mL] | MIC [3] [µg/mL] | MIC [4] [µg/mL] | MIC [5] [µg/mL] |
| --- | --- | --- | --- | --- | --- |
| O=C(O)c1cc(F)c(F)c(F)c1O | > 100 | 6.5 (≈ 33.8 µM) |  |  |  |
| Nc1ccc(C(=O)O)c(O)c1 [AMINOSALICYLIC ACID] | 4000 | 0.3 (≈ 1.96 µM) | 32 (≈ 209 µM) | > 250 |  |
| CC1COc2c(N3CCN(C)CC3)c(F)cc3c(=O)c(C(=O)O)cn1c23 (stereo not given) [OFLOXACIN] |  | 0.1 (≈ 0.277 µM) | 0.1 (≈ 0.277 µM) |  | 0.1 (≈ 0.277 µM) |
| O=C(O)c1ccc(F)c(F)c1O | > 150 | 1.5 (≈ 8.62 µM) | 1.5 (≈ 8.62 µM) |  | 1.5 (≈ 8.62 µM) |
| NNC(=O)c1ccncc1 [ISONIAZID] | 100 | 0.1 (≈ 0.729 µM) | 0.1 (≈ 0.729 µM) |  | 0.1 (≈ 0.729 µM) |
| O=C(O)c1c(O)c(F)c(F)c(F)c1F | 100 | 0.7 (≈ 3.33 µM) | 0.7 (≈ 3.33 µM) |  | 0.7 (≈ 3.33 µM) |
| O=C(O)c1cc(F)c(F)cc1O | > 300 | 0.7 (≈ 4.02 µM) | 0.7 (≈ 4.02 µM) |  | 0.7 (≈ 4.02 µM) |
